The source of these data is US6395787B1, “Ocular hypotensive lipids” (Allergan Sales, Inc., priority 2000, dated 2002).

Test [1] addresses recombinant feline FP receptor (Felis catus, UniProt A0ABI7XJ69). Nature of the test: Ca2+ signal in HEK-293 cells stably transfected with recombinant feline FP receptor. Format: cell-based, cat. To be noted: HEK-293 cells, recombinant feline FP receptor; read-out: E.C.50, Ca2+ signal. Here is the method: (§1) Human CRL 1497 cells were plated in culture flasks and fed Dulbecco's modified Eagle's medium (DMEM) containing 10% fetal calf serum, 2 mM 1-glutamine, and 0.05 mg/ml gentacin (all purchased from Gibco, Grand Island, N.Y.). Cell cultures were maintained in a humidified atmosphere of 95% air, 5% CO2 and grown to confluency. Cells were removed from the culture flasks by approximately 1 min treatment with trypsin 0.05%/0.53 mM EDTA in Hanks Balanced Salt Solution (HBSS, Gibco, Grand Island, N.Y.) at 37° C. Proteolytic activity was arrested by adding 5 ml of 10% fetal bovine serum in DMEM. The cells were consecutively washed in Hank's BSS and medium containing 140 mM NaCl, […], 1 mM MgCl2, 1.5 mM CaCl2, 10 mM HEPES: TRIS, 5 mM glucose, 5 mM Na pyruvate, 0.1% bovine serum albumin at pH 7.4: Centrifugation for the washes was performed for 15 minutes at 200 g at room temperature. Cells were counted, resuspended in the above medium and incubated with 2×10^−6 M Fura 2/acetoxymethyl ester in a shaking water bath for 30 minutes at 37° C. The cells were subsequently washed in medium as above and resuspended at a concentration of 2×10^6 cells ml^−1. Aliquots of 0.5 ml cell suspension were then added to autocap microtubes to provide 10^6 cells per experimental determination of intracellular free Ca^2+ concentration ([Ca^2+]i).
(§2) Fluorescence was measured in a Perkin-Elmer LS-5 fluorescence spectrophotometer at excitation and emission wavelengths of 340 and 492 nm, respectively, with both slits at 10 nm. For each experimental determination 10^6 cells were washed (200×g for 5 min) and suspended in a 2 ml cuvette with buffer containing 120 mM NaCl, 6 mM KCl, 1 mM MgSO4, 1.5 mM CaCl2, 20 mM HEPES, 1 mg ml^−1 glucose and 1 mg ml^−1 Na pyruvate. Stirring was achieved by an overhead-mounted, paddle stirrer with the temperature maintained at 37° C. The cells were lysed with digitonin (10 μl of 100 mg ml^−1 DMSO) to obtain fmax. EGTA (100 mM) and sufficient 10N NaOH to adjust the pH to 8.5 were then successively added to obtain fmin.
HEK-293 cells were grown in DMEM with 10% fetal bovine serum (FBS), 250 μg ml^−1 G418 (Life Technologies) and 200 μg ml^−1 gentamicin or penicillin/streptomycin. […] For transfection, the cells were grown to 50-60% confluency on 10 cm plates. The plasmid pCEP4 incorporating cDNA inserts for the human FP receptor (20 μg) was added to 500 μl of 250 mM CaCl2. HEPES buffered saline×2 (2×HBSS, 280 mM NaCl, 20 mM HEPES acid, 1.5 mM Na2 HPO4, pH 7.05-7.12) was then added dropwise to a […], with continuous vortexing at room temperature. After 30 min, 9 ml DMEM were added to the mixture. The DNA/DMEM/calcium phosphate mixture was then added to the cells, which had been previously rinsed with 10 ml phosphate buffered saline (PBS). The cells were then incubated for 5 h. at 37° C. in humidified 95% air/5% CO2. The calcium phosphate solution was then removed and the cells were treated with 10% glycerol in DMEM for 2 min. The glycerol solution was then replaced by DMEM with 10% fetal bovine serum (FBS). The cells were incubated overnight and the medium was replaced by DMEM/10% FBS containing 250 μg ml^−1 G418 and penicillin/streptomycin. The following day hygromycin B was added to a final concentration of 200 μg ml^−1.
Ten days after transfection, hygromycin B resistant clones were individually selected and transferred to a separate well on a 24 well plate. […]

Test [2] relates to rabbit jugular vein segment. Nature of the test: Vasorelaxation of histamine precontracted rabbit jugular vein segment. As to the method:
Smooth muscle tension of isolated tissues was measured isometrically with force displacement transducers (Grass FT-03) and recorded on Grass Polygraphs (Models 7G and 79E). The organ baths contained Krebs solution maintained at 37° C. and gassed with 95% 02/5% CO2 to give a pH of 7.4. The Krebs solution had the following composition (mM): NaCl, 118.0; KCl, 4.7; KH2PO4, 1.2; CaCl2, 1.9; MgSO4, 1.18; NaHCO3, 25.0; glucose, 11.7; indomethacin, 0.001.
New Zealand albino rabbit of either sex, weighing 2-4 kg, were injected with 1000 U heparin into the marginal ear vein and then sacrificed by CO2 gas. The external jugular veins were cleared of fat and adherent connective tissue and removed. The veins were transected and each ring of 3-4 mm length was suspended between two metal hooks in a jacketed organ bath. The tissues were equilibrated for 1 hr under 0.75 g tension, which was readjusted as the tissues relaxed. Single doses of histamine, 10^−5 M then 2-3×10^−6 M, with washing after each dose, were given to contract the tissue and establish responsiveness. The TP-receptor antagonist SQ29548, (Ogletree et al. (1985) J. Pharmacol. Exp. Ther. 234 435-441) at (10^−6 M), was applied for 5 min and then histamine 2-3×10^−6 M was added to elicit the contractile response. After 30 min of pretreatment with the histamine, the relaxant response was tested by adding cumulative doses of the test compounds with 10^−8 M to 10^−7 M PGE2 at the end of each dose-response curve as a reference. A recovery period of 30-50 min was allowed after wash-out of the tissues. Relaxant activity was calculated as % of the control tone elicited by histamine.

In another test the target is human FP receptor (Homo sapiens, UniProt P43088). Nature of the test: Ca2+ signal in CRL 1497 cells. Details: endogenous in cells; host or cells: CRL 1497 human dermal fibroblasts; Δ[Ca^2+]i mean χ ± SEM: unit not given here. Format: cell-based. Particulars: CRL 1497 cells, n = 4. Here is the method: as §1, §2
In another test the test system is intraocular pressure. To be noted: prior art research of the assignee; cited from earlier work.

Sequence of human FP receptor (P43088 whole entry): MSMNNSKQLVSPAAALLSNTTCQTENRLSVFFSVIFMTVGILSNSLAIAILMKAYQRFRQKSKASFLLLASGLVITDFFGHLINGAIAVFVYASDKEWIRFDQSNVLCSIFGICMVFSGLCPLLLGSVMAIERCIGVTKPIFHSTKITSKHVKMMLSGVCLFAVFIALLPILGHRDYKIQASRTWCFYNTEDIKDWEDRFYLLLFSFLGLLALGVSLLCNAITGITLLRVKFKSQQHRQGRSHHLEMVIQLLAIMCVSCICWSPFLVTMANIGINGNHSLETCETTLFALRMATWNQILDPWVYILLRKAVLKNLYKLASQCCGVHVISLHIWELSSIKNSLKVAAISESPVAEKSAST
Sequence of recombinant feline FP receptor (A0ABI7XJ69 entry or part of it): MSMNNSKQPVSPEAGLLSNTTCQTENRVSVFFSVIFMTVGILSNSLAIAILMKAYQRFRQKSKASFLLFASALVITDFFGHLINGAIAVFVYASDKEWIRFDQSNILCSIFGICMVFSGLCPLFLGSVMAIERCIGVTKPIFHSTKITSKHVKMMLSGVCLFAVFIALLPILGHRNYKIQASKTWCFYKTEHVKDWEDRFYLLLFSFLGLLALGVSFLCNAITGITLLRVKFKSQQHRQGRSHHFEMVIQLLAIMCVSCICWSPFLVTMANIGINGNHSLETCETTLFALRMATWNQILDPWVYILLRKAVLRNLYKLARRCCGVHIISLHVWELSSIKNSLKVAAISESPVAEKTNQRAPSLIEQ

As for `CCCCC[C@H](O)/C=C/[C@@H]1[C@@H](C/C=C\CCCC(=O)O)[C@@H](O)C[C@H]1O` [PGF2α, reference compound], the EC50 in test [1] came out at 14 nM; in test [2] (Oryctolagus cuniculus, histamine precontracted, read-out: E.C.50, vasorelaxation of the precontracted rabbit jugular vein segment) it was 5.3 nM. The endothelium dependent vasorelaxation result in test [2] (histamine precontracted rabbit jugular vein segment) is listed as “marked vasorelaxation”. For the same compound, the “Δ[Ca^2+]i mean χ ± SEM” value is given as 136.7 ± 11.2 at human FP receptor (10^−5 M); 127.4 ± 7.6 at human FP receptor (10^−6 M); 124.1 ± 6.5 at human FP receptor (10^−7 M); 47.7 ± 9.4 at human FP receptor (10^−8 M); 5.6 ± 2.4 on human FP receptor (10^−9 M).
With `CCNC(=O)CCC/C=C\C[C@@H]1[C@@H](/C=C/[C@@H](O)CCc2ccccc2)[C@H](O)C[C@@H]1O` [prior art compound no. 1], the intraocular hypotensive activity result in the test on intraocular pressure is “strong intraocular hypotensive activity”.
As for `CCCCCC(/C=C/[C@H]1C(O)CC(O)[C@@H]1C/C=C\CCCC(N)=O)OC` (stereo partly shown) [prior art compound no. 2], the intraocular hypotensive activity result in the test with intraocular pressure is listed as “strong intraocular hypotensive activity”.
